This note sets out measurements from ChEMBL document CHEMBL3596179, “Structural development of stabilized helical peptides as inhibitors of estrogen receptor (ER)-mediated transcription” (Bioorg Med Chem, 2015).

In series [1] the target is T1, Estrogen receptor (Homo sapiens) (UniProt P03372).
T1 sequence (whole entry): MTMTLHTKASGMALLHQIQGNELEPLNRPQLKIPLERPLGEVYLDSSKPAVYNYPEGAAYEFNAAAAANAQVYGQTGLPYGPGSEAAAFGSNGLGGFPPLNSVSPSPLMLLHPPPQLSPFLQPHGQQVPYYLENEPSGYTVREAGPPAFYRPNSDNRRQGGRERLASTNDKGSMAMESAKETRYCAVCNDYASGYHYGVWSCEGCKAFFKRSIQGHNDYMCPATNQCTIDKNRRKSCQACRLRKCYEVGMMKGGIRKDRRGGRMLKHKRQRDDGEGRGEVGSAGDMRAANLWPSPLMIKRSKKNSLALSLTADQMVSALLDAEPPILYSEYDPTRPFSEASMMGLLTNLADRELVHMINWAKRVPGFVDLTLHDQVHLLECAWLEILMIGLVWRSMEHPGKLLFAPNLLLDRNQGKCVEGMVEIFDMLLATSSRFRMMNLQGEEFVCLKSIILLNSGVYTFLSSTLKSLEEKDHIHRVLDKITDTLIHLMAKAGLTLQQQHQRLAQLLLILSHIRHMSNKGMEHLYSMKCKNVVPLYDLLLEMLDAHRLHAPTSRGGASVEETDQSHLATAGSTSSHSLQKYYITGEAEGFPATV
Put plainly: Inhibition of estrogen receptor-mediated gene expression in human T47D cells assessed as reduction in estrogen-induced pS2 mRNA expression at 3 to 30 uM incubated for 24 hrs by qPCR method. It counts as cell-based. A general note: Real-time PCR tracks product formation cycle by cycle.

Series [2] concerns the target T2, Estrogen receptor (Homo sapiens, UniProt P03372).
T2 sequence (P03372 whole entry): T1 sequence (whole entry)
Description: Inhibition of estrogen receptor alpha (unknown origin)-SRC1 coactivator interaction incubated for 1 hr by receptor cofactor assay system based method

Series [3] deals with T47D. The experiment in a line: Drug uptake in human T47D cells at 1 uM incubated for 3 hrs by Hoechst 33342 dye based confocal laser scanning microscopy. In kind it is ADME, cell-based.
Series [4] addresses T1, Estrogen receptor (Homo sapiens). The following applies: T47D, 10 uM.
Description: Inhibition of estrogen receptor-mediated gene expression in human T47D cells assessed as reduction in estrogen-induced pS2 mRNA expression at 10 uM incubated for 24 hrs by qPCR method
The target is the same in series [5]. The experiment in a line: Inhibition of estrogen receptor-mediated gene expression in human T47D cells assessed as reduction in estrogen-induced pS2 mRNA expression at 3 uM incubated for 24 hrs by qPCR method. In kind it is cell-based.

Where a chain is given by its changes, count along the chain named. Active and inactive are the calls of the source. No cut-off for these calls is given here. Positions of bridges follow the written chain, without caps; N, C: chain ends. Non-standard residues stand in square brackets, D forms with d. Residues, ends and D or L forms follow the SMILES beside them. ξ: configuration not given here. ξtBuAla = CC(C)(C)CC(N)C(=O)O; ξAbu = CCC(N)C(=O)O

One may read the inhibition as the change of the read-out against control, counted positive when it falls. For orientation: IC50 means the midpoint of a concentration-inhibition curve. Consider H-HKILHRLLQGGGRRRRRRR-NH2, for which the inhibition result in series [1] was “inactive”. Further, the IC50 in series [2] is > 1 µM.
As for H-HKILHRLLQ-NH2, the IC50 in series [2] was > 1 µM.
Take `N=C(N)NCCC[C@H](NC(=O)[C@H](CCCNC(=N)N)NC(=O)[C@H](CCCNC(=N)N)NC(=O)[C@H](CCCNC(=N)N)NC(=O)[C@H](CCCNC(=N)N)NC(=O)[C@H](CCCNC(=N)N)NC(=O)[C@H](CCCNC(=N)N)NC(=O)[C@@H](N)Cc1ccc(O)cc1)C(N)=O`: the inhibition entry in series [1] is “inactive”. For the same compound, the IC50 in series [2] was > 1 µM.
In series [2], `CC[C@H](C)[C@@H]1NC(=O)[C@H](NC(=O)[C@@H](N)CCCNC(=N)N)C/C=C/C[C@@H](C(=O)N[C@@H](CCCNC(=N)N)C(=O)NC(CC(C)(C)C)C(=O)N[C@@H](CC(C)C)C(=O)N[C@@H](CCC(N)=O)C(N)=O)NC(=O)[C@H](CC(C)C)NC1=O` (stereo not given in full) displayed an IC50 of 0.39 µM.
Turning to `CCC(NC(=O)[C@H](CC(C)C)NC(=O)[C@@H](NC(=O)C(CC)NC(=O)[C@@H](N)CCCNC(=N)N)[C@@H](C)CC)C(=O)N[C@@H](CCCNC(=N)N)C(=O)NC(CC(C)(C)C)C(=O)N[C@@H](CC(C)C)C(=O)NCC(N)=O` (stereo not given in full) (H-R[ξAbu]IL[ξAbu]R[ξtBuAla]LG-NH2), the IC50 in series [2] amounted to 0.67 µM.
`CC[C@H](C)[C@@H]1NC(=O)[C@H](NC(=O)[C@@H](N)CCCNC(=N)N)CCCC[C@@H](C(=O)N[C@@H](CCCNC(=N)N)C(=O)NC(CC(C)(C)C)C(=O)N[C@@H](CC(C)C)C(=O)N[C@@H](CCC(N)=O)C(N)=O)NC(=O)[C@H](CC(C)C)NC1=O` (stereo not given in full): the IC50 in series [2] was > 1 µM.
Take `CC[C@H](C)[C@@H]1NC(=O)[C@H](NC(=O)[C@@H](N)CCCNC(=N)N)CSSC[C@@H](C(=O)N[C@@H](CCCNC(=N)N)C(=O)NC(CC(C)(C)C)C(=O)N[C@@H](CC(C)C)C(=O)N[C@@H](CCC(N)=O)C(N)=O)NC(=O)[C@H](CC(C)C)NC1=O` (stereo not given in full): in series [2], the IC50 was 0.013 µM.
Regarding `CC[C@H](C)[C@@H]1NC(=O)[C@H](NC(=O)[C@H](CCCCN)NC(=O)c2ccc3c(c2)C2(OC3=O)c3ccc(O)cc3Oc3cc(O)ccc32)CSSC[C@@H](C(=O)N[C@@H](CCCNC(=N)N)C(=O)N[C@@H](CC(C)C)C(=O)N[C@@H](CC(C)C)C(=O)N[C@@H](CCC(N)=O)C(=O)NCC(=O)NCC(=O)NCC(=O)N[C@@H](CCCNC(=N)N)C(=O)N[C@@H](CCCNC(=N)N)C(=O)N[C@@H](CCCNC(=N)N)C(=O)N[C@@H](CCCNC(=N)N)C(=O)N[C@@H](CCCNC(=N)N)C(=O)N[C@@H](CCCNC(=N)N)C(=O)N[C@@H](CCCNC(=N)N)C(N)=O)NC(=O)[C@H](CC(C)C)NC1=O`, the Drug uptake entry in series [3] was “Active”.
Take `CC[C@H](C)[C@@H]1NC(=O)[C@H](NC(=O)[C@H](CCCCN)NC(=O)c2ccc3c(c2)C2(OC3=O)c3ccc(O)cc3Oc3cc(O)ccc32)CSSC[C@@H](C(=O)N[C@@H](CCCNC(=N)N)C(=O)N[C@@H](CC(C)C)C(=O)N[C@@H](CC(C)C)C(=O)N[C@@H](CCC(N)=O)C(N)=O)NC(=O)[C@H](CC(C)C)NC1=O`: the Drug uptake entry in series [3] is reported as “Not Active”.
For `CC[C@H](C)[C@@H]1NC(=O)[C@H](NC(=O)[C@@H](N)CCCNC(=N)N)C/C=C/C[C@@H](C(=O)N[C@@H](CCCNC(=N)N)C(=O)NC(CC(C)(C)C)C(=O)N[C@@H](CC(C)C)C(=O)N[C@@H](CCC(N)=O)C(=O)NCC(=O)NCC(=O)NCC(=O)N[C@@H](CCCNC(=N)N)C(=O)N[C@@H](CCCNC(=N)N)C(=O)N[C@@H](CCCNC(=N)N)C(=O)N[C@@H](CCCNC(=N)N)C(=O)N[C@@H](CCCNC(=N)N)C(=O)N[C@@H](CCCNC(=N)N)C(=O)N[C@@H](CCCNC(=N)N)C(N)=O)NC(=O)[C@H](CC(C)C)NC1=O` (stereo not given in full), the inhibition result in series [1] was “inactive”.
In the case of `CCC(NC(=O)[C@@H](N)CCCNC(=N)N)C(=O)N[C@H](C(=O)N[C@@H](CC(C)C)C(=O)N[C@@H](Cc1cnc[nH]1)C(=O)N[C@@H](CCCNC(=N)N)C(=O)NC(CC(C)(C)C)C(=O)N[C@@H](CC(C)C)C(=O)N[C@@H](CCC(N)=O)C(N)=O)[C@@H](C)CC` (stereo not given in full) (H-R[ξAbu]ILHR[ξtBuAla]LQ-NH2), in series [2], the IC50 was > 1 µM.
The compound `CCC(NC(=O)[C@H](CC(C)C)NC(=O)[C@@H](NC(=O)[C@H](Cc1cnc[nH]1)NC(=O)[C@@H](N)CCCNC(=N)N)[C@@H](C)CC)C(=O)N[C@@H](CCCNC(=N)N)C(=O)NC(CC(C)(C)C)C(=O)N[C@@H](CC(C)C)C(=O)N[C@@H](CCC(N)=O)C(N)=O` (stereo not given in full) (H-RHIL[ξAbu]R[ξtBuAla]LQ-NH2) displayed an IC50 in series [2] of 0.62 µM.
On to `CC[C@H](C)[C@@H]1NC(=O)[C@H](NC(=O)[C@@H](N)CCCCN)CSSC[C@@H](C(=O)N[C@@H](CCCNC(=N)N)C(=O)N[C@@H](CC(C)C)C(=O)N[C@@H](CC(C)C)C(=O)N[C@@H](CCC(N)=O)C(=O)NCC(=O)NCC(=O)NCC(=O)N[C@@H](CCCNC(=N)N)C(=O)N[C@@H](CCCNC(=N)N)C(=O)N[C@@H](CCCNC(=N)N)C(=O)N[C@@H](CCCNC(=N)N)C(=O)N[C@@H](CCCNC(=N)N)C(=O)N[C@@H](CCCNC(=N)N)C(=O)N[C@@H](CCCNC(=N)N)C(N)=O)NC(=O)[C@H](CC(C)C)NC1=O`, for which the inhibition in series [4] came to 95%; in series [5], 20%. In series [2], the IC50 stood at 0.749 µM.
Turning to `C=CCC(NC(=O)[C@H](CC(C)C)NC(=O)[C@@H](NC(=O)[C@@H](CC=C)NC(=O)[C@@H](N)CCCNC(=N)N)[C@@H](C)CC)C(=O)N[C@@H](CCCNC(=N)N)C(=O)NC(CC(C)(C)C)C(=O)N[C@@H](CC(C)C)C(=O)N[C@@H](CCC(N)=O)C(N)=O` (stereo not given in full), the IC50 in series [2] is > 1 µM.
As to `CC[C@H](C)[C@@H]1NC(=O)[C@H](NC(=O)[C@H](CCCNC(=N)N)NC(=O)CNC(=O)CNC(=O)CNC(=O)[C@H](CCCNC(=N)N)NC(=O)[C@H](CCCNC(=N)N)NC(=O)[C@H](CCCNC(=N)N)NC(=O)[C@H](CCCNC(=N)N)NC(=O)[C@H](CCCNC(=N)N)NC(=O)[C@H](CCCNC(=N)N)NC(=O)[C@@H](N)CCCNC(=N)N)CSSC[C@@H](C(=O)N[C@@H](CCCNC(=N)N)C(=O)NC(CC(C)(C)C)C(=O)N[C@@H](CC(C)C)C(=O)N[C@@H](CCC(N)=O)C(N)=O)NC(=O)[C@H](CC(C)C)NC1=O` (stereo not given in full), in series [1], the inhibition entry was “inactive”. Also, the IC50 in series [2] is > 1 µM.
The compound `CC[C@H](C)[C@@H]1NC(=O)[C@H](NC(=O)[C@@H](N)CCCNC(=N)N)C/C=C\C[C@@H](C(=O)N[C@@H](CCCNC(=N)N)C(=O)NC(CC(C)(C)C)C(=O)N[C@@H](CC(C)C)C(=O)N[C@@H](CCC(N)=O)C(N)=O)NC(=O)[C@H](CC(C)C)NC1=O` (stereo not given in full) came in with an IC50 in series [2] of 0.11 µM.
Compound `CC[C@H](C)[C@@H]1NC(=O)[C@H](NC(=O)[C@@H](N)CCCCN)CSSC[C@@H](C(=O)N[C@@H](CCCNC(=N)N)C(=O)N[C@@H](CC(C)C)C(=O)N[C@@H](CC(C)C)C(=O)N[C@@H](CCC(N)=O)C(N)=O)NC(=O)[C@H](CC(C)C)NC1=O` (H-K[dC]ILCRLLQ-NH2; disulfide 2-5) came in with an IC50 in series [2] of 0.035 µM.
Regarding `CC[C@H](C)[C@@H]1NC(=O)[C@H](NC(=O)[C@@H](N)CCCNC(=N)N)CSSC[C@@H](C(=O)N[C@@H](CCCNC(=N)N)C(=O)NC(CC(C)(C)C)C(=O)N[C@@H](CC(C)C)C(=O)N[C@@H](CCC(N)=O)C(=O)NCC(=O)NCC(=O)NCC(=O)N[C@@H](CCCNC(=N)N)C(=O)N[C@@H](CCCNC(=N)N)C(=O)N[C@@H](CCCNC(=N)N)C(=O)N[C@@H](CCCNC(=N)N)C(=O)N[C@@H](CCCNC(=N)N)C(=O)N[C@@H](CCCNC(=N)N)C(=O)N[C@@H](CCCNC(=N)N)C(N)=O)NC(=O)[C@H](CC(C)C)NC1=O` (stereo not given in full), the IC50 in series [2] was determined as 0.094 µM. Moreover, the inhibition in series [5] amounted to 87%.
For `CC[C@H](C)[C@@H]1NC(=O)[C@H](NC(=O)[C@@H](N)CCCNC(=N)N)C/C=C\C[C@@H](C(=O)N[C@@H](CCCNC(=N)N)C(=O)NC(CC(C)(C)C)C(=O)N[C@@H](CC(C)C)C(=O)N[C@@H](CCC(N)=O)C(=O)NCC(=O)NCC(=O)NCC(=O)N[C@@H](CCCNC(=N)N)C(=O)N[C@@H](CCCNC(=N)N)C(=O)N[C@@H](CCCNC(=N)N)C(=O)N[C@@H](CCCNC(=N)N)C(=O)N[C@@H](CCCNC(=N)N)C(=O)N[C@@H](CCCNC(=N)N)C(=O)N[C@@H](CCCNC(=N)N)C(N)=O)NC(=O)[C@H](CC(C)C)NC1=O` (stereo not given in full), in series [1], the inhibition result is “inactive”.
